Experimental data published in article PMC11203799, “Determining the Affinity and Kinetics of Small Molecule Inhibitors of Galectin-1 Using Surface Plasmon Resonance” (International Journal of Molecular Sciences, 2024).

Columns and labels:
mouse galectin-1 = target: T1, mouse galectin-1 (Mus musculus, UniProt P16045); test: SPR binding assay, mouse galectin-1
T1 construct: mouse galectin-1 (residues M1-E135); His-tag; made in house; host or cells: E. coli BL21
Protocol: (§1) For SPR studies, His-tagged proteins were expressed in E. coli strain BL21 (human galectin-1 (residues M1-D135) and mouse galectin-1 (residues M1-E135)) and purified as previously described. SDS-PAGE and mass spectrometry were used to confirm protein purity with all proteins stored at −80 °C until use. Human and mouse proteins for FP were produced as previously described.
(§2) The SPR method previously described for galectin-3 proteins was used here for galectin-1 [10]. Briefly, CM3 sensor chip surfaces (Cytiva, Marlborough, MA, USA) were pre-primed and equilibrated in immobilization buffer (10 mM HEPES, 150 mM NaCl (pH 7.4)) using an Amine Coupling Kit (Cytiva, Marlborough, MA, USA) prior to the immobilization of protein (injected at 10 µg/mL in PBS at pH 6.0). […] Chips surfaces were blocked with ethanolamine HCl (pH 8.5) for 420 s upon reaching the immobilization required. Then, EDC/NHS and ethanolamine were used to treat blank surfaces that were protein-free. Running buffer (RB) was used to dilute compounds (10 mM HEPES, 150 mM NaCl, 1 mM DTT, 0.05% Tween 20, 5% DMSO (pH 7.4)), pre-filtered, degassed, and then injected for 1 min at a flow rate of 30 μL/min. […] Following each cycle, the chip surface was auto-regenerated and aided by fast compound off-rates, and a further wash set was completed in RB. […]

human galectin-1 [1] = target: T2, human galectin-1 (Homo sapiens, UniProt P09382); test: SPR binding assay, human galectin-1
T2 construct: human galectin-1 (residues M1-D135); His-tag; made in house; host or cells: E. coli BL21
T2 sequence (P09382 whole entry, the tested form may be a part): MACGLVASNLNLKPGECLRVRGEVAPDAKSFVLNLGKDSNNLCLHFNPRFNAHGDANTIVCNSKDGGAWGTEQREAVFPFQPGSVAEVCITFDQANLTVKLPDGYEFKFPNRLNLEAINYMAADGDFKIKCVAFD
Protocol: as §1, §2

human galectin-1 [2] = target: T2, human galectin-1; test: Fluorescence polarization (FP) binding assay, galectin-1; details: human vs mouse galectin-1
Protocol: as §1

T1 sequence (P16045 whole entry, the tested form may be a part): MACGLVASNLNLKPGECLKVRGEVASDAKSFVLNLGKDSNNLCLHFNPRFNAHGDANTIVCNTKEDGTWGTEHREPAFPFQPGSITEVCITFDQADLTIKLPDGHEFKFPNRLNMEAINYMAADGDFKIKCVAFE

Fold KD Differences SPR Human vs. Mouse Gal-1 (human galectin-1 [1]; SPR assay, human vs mouse galectin-1) [fold]	Fold KD Differences Human Gal-1 FP vs. SPR (human galectin-1 [1]; human galectin-1, FP vs SPR assay format) [fold]	Fold KD Differences Mouse Gal-1 FP vs. SPR (mouse galectin-1; FP vs SPR assay format) [fold]	Fold KD Differences FP Human vs. Mouse Gal-1 (human galectin-1 [2]) [fold]	Structure (SMILES)	Kd (mouse galectin-1; koff/kon, 1:1 Langmuir model, 25 °C, read-out: kinetic KD in SPR) [nM]
				OC[C@H]1O[C@@H](S[C@@H]2O[C@H](CO)[C@H](O)[C@H](n3cc(-c4cccc(F)c4)nn3)[C@H]2O)[C@H](O)[C@@H](n2cc(-c3cccc(F)c3)nn2)[C@H]1O [Compound 1, GB0139]	131
0.6	1.8	1.6	0.6	OC[C@H]1O[C@H](Sc2cc(Cl)c(F)c(Cl)c2)[C@H](O)[C@@H](n2cc(-c3nccs3)nn2)[C@H]1O [Compound 4, GB1490]	
